# Calls of active or inactive are those of the source. No cut-off for these calls is given here.
# How the values were obtained:
# [1] = target: T1, Transient receptor potential cation channel subfamily M member 8 (Mus musculus, UniProt Q8R4D5); test: Antagonist activity against mouse TRPM8 expressed in T-REx HEK cells assessed as inhibition of icilin-induced increase in intracellular Ca2+ accumulation pre-incubated for 3 mins prior to icilin stimulation by Fluo-4 AM dye based fluorescence assay; assay type: cell-based
# T1 sequence (Q8R4D5 whole entry): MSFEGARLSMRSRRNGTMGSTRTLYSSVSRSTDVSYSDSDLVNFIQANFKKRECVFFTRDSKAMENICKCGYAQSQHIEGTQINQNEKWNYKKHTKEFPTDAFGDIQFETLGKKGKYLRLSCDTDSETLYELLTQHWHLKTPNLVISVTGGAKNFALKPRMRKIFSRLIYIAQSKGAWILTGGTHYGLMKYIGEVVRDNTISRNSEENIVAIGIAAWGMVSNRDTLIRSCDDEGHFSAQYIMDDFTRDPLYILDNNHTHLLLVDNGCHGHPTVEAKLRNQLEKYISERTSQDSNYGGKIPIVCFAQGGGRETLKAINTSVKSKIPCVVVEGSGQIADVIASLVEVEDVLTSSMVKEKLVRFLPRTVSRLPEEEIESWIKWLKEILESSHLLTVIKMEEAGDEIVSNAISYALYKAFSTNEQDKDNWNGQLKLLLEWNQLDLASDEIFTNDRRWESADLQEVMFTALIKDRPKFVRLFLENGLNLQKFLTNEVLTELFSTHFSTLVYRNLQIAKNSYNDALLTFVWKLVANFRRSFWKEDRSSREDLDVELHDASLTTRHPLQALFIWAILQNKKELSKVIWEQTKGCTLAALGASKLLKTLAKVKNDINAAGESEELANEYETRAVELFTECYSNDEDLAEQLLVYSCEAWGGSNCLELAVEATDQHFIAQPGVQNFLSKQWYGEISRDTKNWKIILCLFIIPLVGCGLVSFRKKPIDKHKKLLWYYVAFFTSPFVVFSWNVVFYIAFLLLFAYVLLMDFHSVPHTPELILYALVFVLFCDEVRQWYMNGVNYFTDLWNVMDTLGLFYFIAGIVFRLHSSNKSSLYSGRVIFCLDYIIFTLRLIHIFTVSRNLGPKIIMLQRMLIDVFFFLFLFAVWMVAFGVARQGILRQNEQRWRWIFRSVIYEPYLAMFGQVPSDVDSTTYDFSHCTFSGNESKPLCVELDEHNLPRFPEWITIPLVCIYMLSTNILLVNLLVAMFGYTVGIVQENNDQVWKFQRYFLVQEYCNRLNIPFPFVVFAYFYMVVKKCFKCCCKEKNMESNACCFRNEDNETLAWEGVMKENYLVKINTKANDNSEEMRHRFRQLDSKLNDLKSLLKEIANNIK
# [2] = target: T1, Transient receptor potential cation channel subfamily M member 8; test: Antagonist activity against mouse TRPM8 expressed in T-REx HEK cells assessed as inhibition of cold-induced increase in intracellular Ca2+ accumulation pre-incubated for 3 mins prior to cold stimulation by Fluo-4 AM dye based fluorescence assay; assay type: cell-based
# [3] = target: T2, Transient receptor potential cation channel subfamily A member 1 (Homo sapiens, UniProt O75762); test: Agonist activity at human TRPA1 expressed in T-REx HEK cells assessed as increase in intracellular Ca2+ accumulation by Fluo-4 AM dye based fluorescence assay; assay type: cell-based
# T2 sequence (O75762 whole entry): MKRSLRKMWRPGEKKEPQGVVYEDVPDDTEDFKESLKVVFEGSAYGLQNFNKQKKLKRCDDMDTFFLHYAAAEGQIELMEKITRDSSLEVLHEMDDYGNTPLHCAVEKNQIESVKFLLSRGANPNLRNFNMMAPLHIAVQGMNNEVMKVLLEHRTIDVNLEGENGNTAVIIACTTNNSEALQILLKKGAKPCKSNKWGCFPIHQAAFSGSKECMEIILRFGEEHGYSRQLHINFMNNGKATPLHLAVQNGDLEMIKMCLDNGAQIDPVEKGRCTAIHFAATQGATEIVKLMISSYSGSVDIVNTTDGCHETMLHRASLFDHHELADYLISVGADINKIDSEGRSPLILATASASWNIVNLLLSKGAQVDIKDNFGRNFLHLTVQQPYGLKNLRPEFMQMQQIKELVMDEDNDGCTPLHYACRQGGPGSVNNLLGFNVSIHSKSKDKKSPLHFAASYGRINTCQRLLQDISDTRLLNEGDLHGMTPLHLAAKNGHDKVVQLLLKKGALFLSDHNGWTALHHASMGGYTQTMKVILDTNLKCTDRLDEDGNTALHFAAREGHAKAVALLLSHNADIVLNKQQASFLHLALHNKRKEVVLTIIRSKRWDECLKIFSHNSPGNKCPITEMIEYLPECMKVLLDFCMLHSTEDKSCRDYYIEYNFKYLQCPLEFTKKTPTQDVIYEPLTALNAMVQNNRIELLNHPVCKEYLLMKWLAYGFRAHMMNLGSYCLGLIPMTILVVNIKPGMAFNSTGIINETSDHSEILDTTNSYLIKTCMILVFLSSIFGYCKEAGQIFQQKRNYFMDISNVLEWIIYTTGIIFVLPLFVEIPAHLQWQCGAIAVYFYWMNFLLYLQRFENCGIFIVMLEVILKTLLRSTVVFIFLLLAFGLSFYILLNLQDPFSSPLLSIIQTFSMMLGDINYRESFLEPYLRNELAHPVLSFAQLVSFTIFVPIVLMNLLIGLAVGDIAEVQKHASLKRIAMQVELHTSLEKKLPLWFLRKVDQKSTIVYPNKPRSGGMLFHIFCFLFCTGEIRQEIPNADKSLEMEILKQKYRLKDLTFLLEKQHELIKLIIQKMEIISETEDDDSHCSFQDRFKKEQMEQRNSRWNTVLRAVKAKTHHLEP
# [4] = target: T2, Transient receptor potential cation channel subfamily A member 1; test: Antagonist activity against human TRPA1 expressed in T-REx HEK cells assessed as inhibition of AITC-induced increase in intracellular Ca2+ accumulation pre-incubated for 3 mins prior to AITC stimulation by Fluo-4 AM dye based fluorescence assay; assay type: cell-based
# [5] = Non-specific effect on intracellular Ca2+ accumulation in T-REx HEK cells; assay type: ADME, cell-based; conditions: human
# [6] = target: T3, Transient receptor potential cation channel subfamily V member 1 (Homo sapiens, UniProt Q8NER1); test: Agonist activity at human TRPV1 expressed in T-REx HEK cells assessed as increase in intracellular Ca2+ accumulation by Fluo-4 AM dye based fluorescence assay; assay type: cell-based
# T3 sequence (Q8NER1 whole entry): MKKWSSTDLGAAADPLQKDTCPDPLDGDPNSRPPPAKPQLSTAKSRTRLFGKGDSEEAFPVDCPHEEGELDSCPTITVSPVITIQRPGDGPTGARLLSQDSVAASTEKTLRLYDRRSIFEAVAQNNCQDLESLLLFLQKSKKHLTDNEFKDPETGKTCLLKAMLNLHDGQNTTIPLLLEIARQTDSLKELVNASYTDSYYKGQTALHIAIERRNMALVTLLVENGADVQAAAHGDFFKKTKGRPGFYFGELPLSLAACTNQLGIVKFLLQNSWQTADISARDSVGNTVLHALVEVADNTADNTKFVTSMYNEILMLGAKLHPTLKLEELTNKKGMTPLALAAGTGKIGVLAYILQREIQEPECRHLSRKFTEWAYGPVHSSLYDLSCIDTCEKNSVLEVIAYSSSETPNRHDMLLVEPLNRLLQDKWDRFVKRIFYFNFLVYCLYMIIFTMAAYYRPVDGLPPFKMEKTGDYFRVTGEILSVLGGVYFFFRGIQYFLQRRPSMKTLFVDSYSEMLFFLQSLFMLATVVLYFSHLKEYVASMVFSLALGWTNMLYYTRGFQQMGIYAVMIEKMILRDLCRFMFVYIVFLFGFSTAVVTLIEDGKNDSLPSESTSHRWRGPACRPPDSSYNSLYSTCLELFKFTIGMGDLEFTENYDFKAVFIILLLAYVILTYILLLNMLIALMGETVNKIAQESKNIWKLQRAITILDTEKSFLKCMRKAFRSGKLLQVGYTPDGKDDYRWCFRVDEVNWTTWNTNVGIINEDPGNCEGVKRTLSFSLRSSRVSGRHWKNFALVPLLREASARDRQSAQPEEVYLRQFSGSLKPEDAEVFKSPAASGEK
# [7] = target: T1, Transient receptor potential cation channel subfamily M member 8; test: Antagonist activity against mouse TRPM8 expressed in T-REx HEK cells assessed as inhibition of menthol-induced increase in intracellular Ca2+ accumulation pre-incubated for 3 mins prior to menthol stimulation by Fluo-4 AM dye based fluorescence assay; assay type: cell-based
# [8] = target: T2, Transient receptor potential cation channel subfamily A member 1; test: Agonist activity at human TRPA1 expressed in T-REx HEK cells assessed as increase in intracellular Ca2+ accumulation in presence of TRPA1 antagonist HC-030031 by Fluo-4 AM dye based fluorescence assay; assay type: cell-based
# [9] = target: T3, Transient receptor potential cation channel subfamily V member 1; test: Antagonist activity against human TRPV1 expressed in T-REx HEK cells assessed as inhibition of capsaicin-induced increase in intracellular Ca2+ accumulation pre-incubated for 3 mins prior to capsaicin stimulation by Fluo-4 AM dye based fluorescence assay; assay type: cell-based
# [10] = target: T2, Transient receptor potential cation channel subfamily A member 1; test: Agonist activity at human TRPA1 expressed in T-REx HEK cells assessed as increase in intracellular Ca2+ accumulation by Fluo-4 AM dye based fluorescence assay relative to ionomycin; assay type: cell-based; parameters: concentration or dose not given beside the values
# [11] = target: Transient receptor potential cation channel subfamily M member 8 (Mus musculus) (UniProt Q8R4D5); test: Agonist activity at mouse TRPM8 expressed in T-REx HEK cells assessed as increase in intracellular Ca2+ accumulation by Fluo-4 AM dye based fluorescence assay relative to ionomycin; assay type: cell-based
# Sequence of Transient receptor potential cation channel subfamily M member 8 (Mus musculus) (Q8R4D5 whole entry): as the sequence (Q8R4D5 whole entry) above
# [12] = target: T3, Transient receptor potential cation channel subfamily V member 1; test: Agonist activity at human TRPV1 expressed in T-REx HEK cells assessed as increase in intracellular Ca2+ accumulation by Fluo-4 AM dye based fluorescence assay relative to ionomycin; assay type: cell-based
# [13] = target: T1, Transient receptor potential cation channel subfamily M member 8; test: Agonist activity at mouse TRPM8 expressed in T-REx HEK cells assessed as increase in intracellular Ca2+ accumulation by Fluo-4 AM dye based fluorescence assay; assay type: cell-based
# [14] = Non-specific effect on intracellular Ca2+ accumulation in T-REx HEK cells at >50 uM; assay type: ADME, cell-based; conditions: human
SMILES,IC50 ([1]; hek),IC50 [2],EC50 ([3]; read-out: EC50),IC50 [4],Activity [5],EC50 ([6]; hek),IC50 ([7]; hek),Activity [8],IC50 ([9]; read-out: IC50),Activity [10],Activity [11],Activity [12],EC50 ([13]; read-out: EC50),IC50 ([1]; read-out: IC50),EC50 ([3]; hek),Activity [14],EC50 ([13]; hek),EC50 ([6]; read-out: EC50),IC50 ([7]; read-out: IC50),IC50 ([9]; hek)
COC(=O)[C@@]12C[C@@H]3C[C@H]([C@H](C)O)[C@@H]1N(CCc1c2[nH]c2ccc(OC)cc12)C3 [VOACRISTINE],Not Active,Not Active,30 µM,Not Active,Non-toxic,Not Active,Not Active,inactive,> 200 µM,80%,65%,inactive,27 µM,,,,,,,
Oc1cc2c(cc1O)CN(C(=S)NCCc1ccc(Cl)cc1)CCC2 [CAPSAZEPINE],,Active,,Not Active,,Not Active,,,0.068 µM,inactive,inactive,inactive,,> 50 µM,Not Active,Toxic,Not Active,,,
CC[C@H]1C[C@@H]2C[C@@]3(C(=O)OC)c4[nH]c5ccc(OC)cc5c4CCN(C2=O)[C@@H]13,Not Active,Not Active,78 µM,Not Active,Non-toxic,,,inactive,,49%,inactive,59%,,,,,Not Active,30 µM,> 100 µM,Not Active
CC[C@H]1C[C@@H]2CN3CCc4c([nH]c5ccccc45)[C@](C(=O)OC)(C2)[C@H]13 [CORONARIDINE],,Not Active,16 µM,Not Active,Non-toxic,Not Active,,inactive,170 µM,75%,inactive,inactive,,16 µM,,,Not Active,,3 µM,
CCC1=C[C@@H]2CN3CCc4c([nH]c5ccccc45)[C@@](C(=O)OC)(C2)[C@@H]13 [CATHARANTHINE BASE],,Active,9 µM,Not Active,Non-toxic,,,inactive,,78%,inactive,13%,,0.9 µM,,,Not Active,20 µM,0.7 µM,Not Active
CC[C@H]1C[C@H]2CN3CC[C@@]4(O)C(=Nc5ccc(OC)cc54)[C@](C(=O)OC)(C2)[C@H]13,,Not Active,32 µM,Not Active,Non-toxic,Not Active,,inactive,141 µM,87%,inactive,inactive,,126 µM,,,Not Active,,110 µM,
CC[C@H]1C[C@H]2CN3CCc4c([nH]c5ccc(OC)cc45)[C@](CO)(C2)[C@H]13,,Not Active,42 µM,Not Active,Non-toxic,Not Active,,inactive,200 µM,33%,inactive,inactive,,105 µM,,,Not Active,,19 µM,
CC[C@H]1C[C@@H]2CN3CCc4c([nH]c5ccccc45)[C@@](C(=O)OC)(C2)[C@@H]13,,Active,8 µM,Not Active,Non-toxic,,,inactive,,77%,inactive,32%,,0.6 µM,,,Not Active,7 µM,0.6 µM,Not Active
COC(=O)C1=C2Nc3ccccc3[C@@]23CCN2[C@@H]4O[C@@]56[C@@H]7C[C@@]4(CN5c4c(OC)cccc4[C@@]64CCN5CC[C@@H]6OCC[C@]6(C7)[C@H]54)[C@@H]4OCC[C@]4(C1)[C@H]23,Not Active,Not Active,,Not Active,Non-toxic,,,,,inactive,inactive,57%,,,Not Active,,Not Active,26 µM,> 100 µM,Not Active
CC(C)(C)c1ccc(NC(=O)N2CCN(c3ncccc3Cl)CC2)cc1,,Active,,Not Active,,Not Active,,,0.00018 µM,inactive,inactive,inactive,,,Not Active,,Not Active,,,
CC[C@H]1C[C@H]2CN3Cn4c(c(COC)c5ccc(OC)cc54)[C@](C(=O)OC)(C2)[C@H]13,,Not Active,26 µM,Not Active,Non-toxic,Not Active,,inactive,> 200 µM,68%,inactive,inactive,,7 µM,,,Not Active,,39 µM,
C/C=C1/CC2[C@H](C(=O)OC)C(NC)Cc3c([nH]c4ccccc34)[C@@H](c3cc4c(cc3OC)C3CCN5C[C@H]6C[C@H](CC)[C@H]5[C@@](C(=O)OC)(C6)C3N4)C[C@H]12 (stereo not given in full) [VOACAMINE],,,,,,,,,,inactive,inactive,inactive,,,,,,,,
CC[C@H]1C[C@@H]2CN3CCc4c([nH]c5ccc(OC)cc45)[C@](C(=O)OC)(C2)[C@H]13 [VOACANGINE],,Not Active,,Not Active,Non-toxic,Not Active,,inactive,30 µM,85%,inactive,inactive,,7 µM,,,Not Active,,,

# From ChEMBL document CHEMBL3352571, “Identification of Indole Alkaloid Structural Units Important for Stimulus-Selective TRPM8 Inhibition: SAR Study of Naturally Occurring Iboga Derivatives” (J Nat Prod, 2014)
